Test results as given in publication PMC5483439, “The Effect of Pungent and Tingling Compounds from Piper nigrum L. on Background K^+ Currents” (Frontiers in Pharmacology, 2017).

How the values were obtained:
tongue surface = test system: tongue surface; set-up: method as in Dawid et al., 2012; conditions: human, filter paper on tongue; ref Dawid et al., 2012; cited from earlier work
mKCNK3 = biological target: T1, mKCNK3 (Mus musculus, UniProt O35111); test: Two-electrode voltage clamp on Xenopus oocytes expressing mKCNK3; assay type: cell-based; conditions: 1–1000 μM
T1 construct: expressed in transfected cells; host or cells: Xenopus laevis oocytes injected with cRNA (plasmid pSGEM)
Description: Human KCNK3 (TASK-1, K2P3.1) cloned into the expression vector pIRES-CD8 was a gift from Dr. Fabrice Duprat (Institut National de la Santé et de la Recherche Médicale, Antipolis, France). Human KCNK18 (hTRESK, K2P18.1), cloned into the plasmid pEXO, was a gift from Dr. P. Enyedi (Semmelweis University, Budapest, Hungary). These plasmids were linearized with the restriction enzymes BamHI and XbaI, respectively, and then used as templates for in vitro transcription. Human KCNK9 (hTASK-3, K2P9.1) cloned into the expression vector pCR4-TOPO, was purchased from Imagenes (Berlin, Germany). The plasmid was linearized with the restriction enzyme SspI, to generate a linear cDNA template for in vitro transcription. mKCNK3 was isolated from mouse heart by standard procedures and inserted into pSGEM. mKCNK9 and mKCNK18 were kindly provided by Dr. D. Bayliss (University of Virginia, Charlottesville, VA, United States) and Prof. Dr. P. Enyedi (Semmelweis University, Budapest, Hungary). Both channels were subcloned into pSGEM. The pSGEM plasmids were subsequently linearized with the restriction enzyme PacI. The capped RNAs were synthesized in the presence of the capping analog m7G(5′)ppp(5′)G using the AmpliCap-T7 Message Maker kit (Epicentre, Madison, WI, United States). The cRNA was dissolved in nuclease-free water to obtain a final concentration of 100 ng/μL. […]

T1 sequence (O35111 whole entry): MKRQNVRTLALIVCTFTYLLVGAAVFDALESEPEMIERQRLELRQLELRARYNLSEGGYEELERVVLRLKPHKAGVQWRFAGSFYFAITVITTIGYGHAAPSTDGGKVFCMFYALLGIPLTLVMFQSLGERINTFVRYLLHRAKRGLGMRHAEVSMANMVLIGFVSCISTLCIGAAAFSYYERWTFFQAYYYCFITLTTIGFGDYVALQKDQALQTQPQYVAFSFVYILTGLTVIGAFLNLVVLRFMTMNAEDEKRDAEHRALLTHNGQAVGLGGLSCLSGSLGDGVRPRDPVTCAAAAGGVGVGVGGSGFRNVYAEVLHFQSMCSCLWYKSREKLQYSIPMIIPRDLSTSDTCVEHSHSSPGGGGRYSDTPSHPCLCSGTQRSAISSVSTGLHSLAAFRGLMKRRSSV

IC50 (mKCNK3): 30 ± 2.8 µM
SMILES: O=C(/C=C/C=C/c1ccc2c(c1)OCO2)N1CCCCC1 [1a, piperine]
pungent threshold concentration (tongue surface): 3.0 nmol/cm^2
